According to patent US20220348590A1, “CYCLOOXYGENASE-2 INHIBITORS AND USES THEREOF” (The Board Institute, Inc., priority 2019, published 2022):
Where two headings read alike, the source gives them in different places.

How the values were obtained:
ovine COX-1 (oCOX-1) = biological target: T1, ovine COX-1 (oCOX-1) (Ovis aries, UniProt P05979); assay: LCMS-based COX-1 enzymatic inhibition assay (PGE2 quantification); type: biochemical
T1 construct: purchased Cayman Chemicals (Ann Arbor, Mich.)
T1 sequence (P05979 25-600): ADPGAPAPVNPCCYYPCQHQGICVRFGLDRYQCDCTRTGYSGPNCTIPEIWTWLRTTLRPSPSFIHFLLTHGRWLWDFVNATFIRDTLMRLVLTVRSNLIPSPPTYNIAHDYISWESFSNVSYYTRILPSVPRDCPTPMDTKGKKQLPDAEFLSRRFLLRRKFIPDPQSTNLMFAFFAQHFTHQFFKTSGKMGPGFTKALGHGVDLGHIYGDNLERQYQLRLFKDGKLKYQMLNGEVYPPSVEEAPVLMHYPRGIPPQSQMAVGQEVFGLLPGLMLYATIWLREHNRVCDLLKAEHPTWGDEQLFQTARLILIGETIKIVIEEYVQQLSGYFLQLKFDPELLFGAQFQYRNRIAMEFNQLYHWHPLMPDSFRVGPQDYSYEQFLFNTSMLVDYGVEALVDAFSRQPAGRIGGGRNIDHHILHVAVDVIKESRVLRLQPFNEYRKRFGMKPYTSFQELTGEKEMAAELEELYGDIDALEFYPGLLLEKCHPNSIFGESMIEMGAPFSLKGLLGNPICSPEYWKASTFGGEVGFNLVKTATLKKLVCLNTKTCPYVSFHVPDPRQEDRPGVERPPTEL
Procedure: We have adapted a previously reported cyclooxygenase enzymatic assay utilizing LCMS quantification of PGE2 as the product of COX-1 and COX2 catalyzed conversion of arachidonic acid to evaluate the binding properties of newly synthesized ligands [Cao, 2011]. These optimized and miniaturized (384-well plates) LCMS-based COX-1 and COX2 enzymatic assays enabled us to quickly evaluate newly synthesized ligands for COX2 binding affinity and selectivity vs COX-1. Using a shorter ligand-enzyme incubation time in the LCMS assay (2 minutes vs 10 minutes) also permitted us to prioritize ligands with faster binding kinetics. Considering the relatively slow on-rate kinetics of known coxibs, due to their 3-step binding mechanism [Marnett, 2009], we believe that optimizing this critical parameter will be key to the successful development of a COX2 PET tracer. Using these enzymatic assays, we have evaluated>200 newly synthesized ligands against COX2 and >20 ligands against COX-1. Another critical property necessary for a good PET radiotracer is to have low non-specific binding (NSB) to increase the free fraction and maximize the signal to noise ratio. This property can be evaluated using in-vitro protein binding assays, and we have now evaluated>50 newly synthesized ligands in mouse, rat and human plasma protein binding (PPB) assays as well as >15 ligands in a mouse brain protein binding (BPB) assay.
Ovine COX-1 (oCOX-1), ovine COX2 (oCOX2), human recombinant COX2 (hCOX2), arachidonic acid, PGE2, d4-PGD2, and […] (labeled with deuterium atoms at positions 3 and 4) were purchased from Cayman Chemicals (Ann Arbor, Mich.). The cofactors (−)epinephrine and hematin, and the COX inhibitors indomethacin, resveratrol and diclofenac were purchased from Sigma-Aldrich (St. Louis, Mo.). Celecoxib was purchased from 3B PharmaChem International (Wuhan, China). All organic solvents were HPLC grade or better and were purchased from Thermo Fisher (Hanover Park, Ill.). Formic acid was purchased from EMD Chemicals (San Diego, Calif.). Purified water was prepared by using a Millipore Milli-Q purification system (Millipore, Billerica, Mass.). All other chemicals and solvents were ACS reagent grade, unless stated otherwise.
In an Eppendorf tube, 146 μL of 100 mM Tris.HCl (pH 8.0) buffer, 2 μL of 100 μM hematin (co-factor) and 10 μL of 40 mM L-epinephrine (co-factor) were mixed at room temperature. Next, 20 μL of Tris.HCl (pH 8.0) buffer containing 0.2 μg COX2 or 0.1 μg COX-1 (approximately 1 unit of enzyme; 1 unit COX utilizes 1 nmol 02/mg/min at 37° C.) was added, and the solution was incubated at room temperature for 2 min. A 2 μL aliquot of the COX inhibitor in DMSO was added to the enzyme solution and preincubated at 37° C. for 10 min. Negative controls were identical except that 2 μL aliquots of DMSO without inhibitor were used instead.
Each COX reaction was initiated by adding 20 μL of arachidonic acid in Tris.HCl (pH 8.0) buffer to give a final concentration of 5 μM; and the reaction was terminated after 2 min by adding 20 μL of 2.0 M HCl. The surrogate standards d4-PGE2 and d4-PGD2 (10 μL aliquot of 50 ng/mL solution in methanol) were added to correct for errors or degradation during sample handling and for variation in injection volume or instrument response during LC-MS-MS. After 30 min, PGE2, PGD2 and their surrogate standards were extracted from each incubation mixture using 800 μL hexane/ethyl acetate (50:50, v/v). The organic phase was removed, evaporated to dryness, and reconstituted in 100 μL methanol/water (50:50, v/v) for analysis using LC-MS-MS.
The concentration of PGE2 in each sample was measured using LC-MS-MS, and the percent of COX inhibition by each test solution was determined by comparing the amount of PGE2 produced in the experiment with that produced in the negative control incubation. The formation of PGD2 was measured for quality control purposes, since the levels of PGD2 should be proportional to those of PGE2. […]

[1] = biological target: T2, human recombinant COX2 (hCOX2) (UniProt P35354); assay: LCMS-based COX2 enzymatic inhibition assay (PGE2 quantification); type: biochemical; design: COX2 2 minutes pge2/pge2d4 area ratio Avg; other: 2 minutes; readout pge2/pge2d4 area ratio; average; COX2 2 minutes pge2/pge2d4 area ratio Avg; LLE; average LLE; COX2 2 minutes pge2 area (counts) Avg; readout pge2 area (counts); other: 2 min; "ovine COX2 (oCOX2), human recombinant COX2 (hCOX2)"; settings: for IC50: average
T2 sequence (P35354 1-604): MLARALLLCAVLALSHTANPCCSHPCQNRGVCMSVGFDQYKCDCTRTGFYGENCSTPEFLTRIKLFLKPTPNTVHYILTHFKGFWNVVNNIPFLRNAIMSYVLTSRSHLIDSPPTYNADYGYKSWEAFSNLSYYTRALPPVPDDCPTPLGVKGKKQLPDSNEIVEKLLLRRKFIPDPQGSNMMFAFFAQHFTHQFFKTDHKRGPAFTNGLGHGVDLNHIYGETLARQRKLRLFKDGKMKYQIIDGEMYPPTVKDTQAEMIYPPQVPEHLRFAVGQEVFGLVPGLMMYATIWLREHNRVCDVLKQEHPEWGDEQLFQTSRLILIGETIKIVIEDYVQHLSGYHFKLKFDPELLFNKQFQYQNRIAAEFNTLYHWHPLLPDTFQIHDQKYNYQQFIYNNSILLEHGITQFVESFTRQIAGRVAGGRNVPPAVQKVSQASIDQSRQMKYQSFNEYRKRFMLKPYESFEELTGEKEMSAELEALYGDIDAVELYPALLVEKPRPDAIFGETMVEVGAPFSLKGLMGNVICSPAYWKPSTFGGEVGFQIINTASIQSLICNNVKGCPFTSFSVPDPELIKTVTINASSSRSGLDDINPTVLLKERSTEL
How it was run: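 Ovine COX-1 (0.1 μg) or human recombinant COX2 (0.2 μg) in 100 mM Tris.HCl pH 8.0 with hematin and epinephrine, preincubated with inhibitor 10 min at 37 °C. Reaction with 5 μM arachidonic acid stopped after 2 min with HCl; PGE2 quantified by LC-MS-MS. IC50 from 12 concentrations in triplicate.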

[2] = 10 minutes, pge2/pge2d4 area ratio, head of this section not shown, inferred
[3] = 10 minutes, readout pge2/pge2d4 area ratio, average, read-out: COX1 10 minutes pge2/pge2d4 area ratio Avg. IC50
[4] = 2 minutes, readout pge2/pge2d4 area ratio, average LLE
[5] = 2 minutes, readout pge2/pge2d4 area ratio, read-out: COX2 2 minutes pge2/pge2d4 area ratio Avg. IC50
[6] = 2 minutes, readout pge2 area (counts), average LLE
[7] = 2 minutes, readout pge2 area (counts), read-out: COX2 2 minutes pge2 area (counts) Avg. IC50
[8] = 10 minutes, readout pge2/pge2d4 area ratio, average LLE
[9] = 10 minutes, readout pge2 area (counts), average LLE
[10] = 10 minutes, readout pge2 area (counts), average, read-out: COX1 10 minutes pge2 area (counts) Avg. IC50

| Compound | COX1 10 minutes pge2/pge2d4 area ratio Avg. LLE (ovine COX-1 (oCOX-1); [2]) | COX1 10 minutes pge2 area (counts) Avg. LLE (ovine COX-1 (oCOX-1); 10 minutes, pge2 area (counts), head of this section not shown, inferred) | IC50 (ovine COX-1 (oCOX-1); 10 minutes, pge2 area (counts), head of this section not shown, inferred, read-out: COX1 10 minutes pge2 area (counts) Avg. IC50) [nM] | IC50 (ovine COX-1 (oCOX-1); [3]) [nM] | COX2 2 minutes pge2/pge2d4 area ratio Avg. LLE [1, 4] | IC50 [1, 5] [nM] | COX2 2 minutes pge2 area (counts) Avg. LLE [1, 6] | IC50 [1, 7] [nM] | COX1 10 minutes pge2/pge2d4 area ratio Avg. LLE (ovine COX-1 (oCOX-1); [8]) | COX1 10 minutes pge2 area (counts) Avg. LLE (ovine COX-1 (oCOX-1); [9]) | IC50 (ovine COX-1 (oCOX-1); [10]) [nM] | COX2 10 minutes pge2 area (counts) Avg. LLE [1, 9] | IC50 ([1]; 10 minutes, readout pge2 area (counts), read-out: COX2 10 minutes pge2 area (counts) Avg. IC50) [nM] | IC50 (ovine COX-1 (oCOX-1)) [nM] |
| --- | --- | --- | --- | --- | --- | --- | --- | --- | --- | --- | --- | --- | --- | --- |
| CS(=O)(=O)c1ccc(-c2ccc3cnn(Cc4cccs4)c3n2)cc1 [Compound 63] | 2.0906 | 2.128 | 1830 | 1990 | 3.897 | 35.1 | 3.961 | 27.1 | – | – | – | – | – | – |
| COc1cc(-c2ccc(S(C)(=O)=O)cc2)cc(NCc2cccs2)n1 [Compound 54] | – | – | – | 39200 | 3.727 | 25.5 | 3.7767 | 23.8 | 0.5171 | 0.394 | 52000 | 4.182 | 9.43 | – |
| CN(Cc1ccoc1)c1cccc(-c2ccc(S(C)(=O)=O)cc2)n1 [Compound 52] | – | – | – | 51900 | 4.377 | 23.9 | 4.612 | 13.3 | 1.0149 | 1.014 | – | – | – | – |
| CS(=O)(=O)c1ccc(-c2cccc(NCc3ccsc3)n2)cc1 [Compound 11] | – | – | – | – | 4.584 | 8.42 | 4.6244 | 8.13 | – | 0.8485 | 42800 | – | – | – |
| CS(=O)(=O)c1ccc(-c2cc(F)cc(OCc3cccs3)n2)cc1 [Compound 6] | – | – | – | 2860 | 4.364 | 6.26 | 4.247 | 8.2 | 1.694 | 1.673 | 3000 | – | – | – |
| COc1ncc(NCc2ccccc2)nc1-c1ccc(S(C)(=O)=O)cc1 [Compound 49] | – | – | – | – | 5.235 | 22.2 | 5.228 | 21 | 1.734 | 1.734 | – | – | – | 52000 |
| CS(=O)(=O)c1ccc(-c2cccc(NCc3cncs3)n2)cc1 [Compound 99] | 1.498 | – | – | 45900 | 4.286 | 77.9 | 4.248 | 86.9 | – | – | – | – | – | – |
| CS(=O)(=O)c1ccc(-c2cccc(OCc3ccc(F)s3)n2)cc1 [Compound 30] | – | – | – | 42800 | 3.668 | 15 | 3.685 | 12.2 | 0.1181 | 0.2149 | 34300 | – | – | – |
| CS(=O)(=O)c1ccc(-c2nc(NCc3cccs3)cnc2C(F)(F)F)cc1 [Compound 76] | 1.461 | – | – | 31600 | 4.278 | 48.6 | 4.291 | 48.5 | – | – | – | – | – | – |
